{"source": "ChEMBL document CHEMBL1153094", "about": "“Spectroscopic and biological studies of a novel synthetic chlorin derivative with prospects for use in PDT” (Bioorg Med Chem, 2009)", "key": {"[1]": {"test_system": "Lewis lung carcinoma cell line", "experiment": "Antiproliferative activity against mouse LLC cells assessed as F-actin construction damage at 2 uM in liposomal delivery system after 12 hrs pretreated with 15 J/cm2 red light-irradiation by fluorescence microscopy", "assay_type": "functional, cell-based"}, "[2]": {"experiment": "Cytotoxicity against mouse LLC cells assessed as survival fraction at 0.1 to 1.5 uM after 12 hrs by MTS reduction assay under dark condition", "assay_type": "cell-based", "details": "lewis lung carcinoma"}, "[3]": {"test_system": "Lewis lung carcinoma cell line", "experiment": "Antiproliferative activity against mouse LLC cells assessed as DNA […] at 2 uM in liposomal delivery system after 12 hrs pretreated with 15 J/cm2 red light-irradiation by fluorescence microscopy", "assay_type": "functional, cell-based"}, "[4]": {"experiment": "Cytotoxicity against mouse LLC cells assessed as change in cell morphology at 2 uM after 12 hrs by fluorescence microscopy under dark condition", "assay_type": "cell-based", "details": "lewis lung carcinoma"}, "[5]": {"test_system": "Lewis lung carcinoma cell line", "experiment": "Antiproliferative activity against mouse LLC cells assessed as survival fraction at 0.5 uM in liposomal delivery system after 12 hrs pretreated with 15 J/cm2 red light-irradiation by MTS reduction assay", "assay_type": "functional"}, "[6]": {"test_system": "Lewis lung carcinoma cell line", "experiment": "Antiproliferative activity against mouse LLC cells assessed as survival fraction at 0.5 uM in liposomal delivery system after 4 hrs pretreated with 15 J/cm2 red light-irradiation by MTS reduction assay", "assay_type": "functional"}, "[7]": {"test_system": "Lewis lung carcinoma cell line", "experiment": "Antiproliferative activity against mouse LLC cells assessed as survival fraction at 0.5 uM after 4 hrs pretreated with 15 J/cm2 red light-irradiation by MTS reduction assay", "assay_type": "functional"}, "[8]": {"test_system": "Lewis lung carcinoma cell line", "experiment": "Antiproliferative activity against mouse LLC cells assessed as nuclear damage at 2 uM in liposomal delivery system after 12 hrs pretreated with 15 J/cm2 red light-irradiation by fluorescence microscopy", "assay_type": "functional, cell-based"}, "[9]": {"test_system": "Lewis lung carcinoma cell line", "experiment": "Antiproliferative activity against mouse LLC cells assessed as survival fraction at 0.5 uM dissolved in DMSO after 12 hrs pretreated with 15 J/cm2 red light-irradiation by MTS reduction assay", "assay_type": "functional"}, "[10]": {"experiment": "Cytotoxicity against mouse LLC cells assessed as survival fraction at 0.1 to 1.5 uM after 4 hrs by MTS reduction assay under dark condition", "assay_type": "cell-based", "details": "lewis lung carcinoma"}, "[11]": {"test_system": "Lewis lung carcinoma cell line", "experiment": "Antiproliferative activity against mouse LLC cells assessed as survival fraction at 0.5 uM dissolved in DMSO after 4 hrs pretreated with 15 J/cm2 red light-irradiation by MTS reduction assay", "assay_type": "functional"}, "[12]": {"test_system": "Lewis lung carcinoma cell line", "experiment": "Antiproliferative activity against mouse LLC cells assessed as survival fraction at 5 uM after 24 hrs pretreated with 15 J/cm2 red light-irradiation by MTS reduction assay", "assay_type": "functional"}}, "note": "Calls of active or inactive are those of the source. No cut-off for these calls is given here."}
{"molecule": "CCCCCCCC1c2cc3[nH]c(cc4nc(cc5[nH]c(cc(n2)[C@]1(C)CC(=O)N(C)C)c(C)c5CCC(=O)O)C(CCC(=O)O)=C4C)cc3C", "note": "(mixture of isomers)", "values": [{"measurement": "Activity", "setting": "[1]", "value": "Active"}, {"measurement": "Activity", "setting": "[2]", "value": "Non-toxic"}, {"measurement": "Activity", "setting": "[3]", "value": "Active"}, {"measurement": "Activity", "setting": "[4]", "value": "Toxic"}, {"measurement": "Activity", "setting": "[5]", "value": 34.8, "unit": "%"}, {"measurement": "Activity", "setting": "[6]", "value": 20.3, "unit": "%"}, {"measurement": "Activity", "setting": "[7]", "value": 22.3, "unit": "%"}, {"measurement": "Activity", "setting": "[8]", "value": "Active"}, {"measurement": "Activity", "setting": "[9]", "value": 74.4, "unit": "%"}, {"measurement": "Activity", "setting": "[10]", "value": "Non-toxic"}, {"measurement": "Activity", "setting": "[11]", "value": 70.6, "unit": "%"}]}
{"molecule": "C=CC1=C(C)c2cc3[nH]c(cc4nc(cc5[nH]c(cc1n2)c(C)c5CCC(=O)[O-])C(CCC(=O)[O-])=C4C)c(C)c3C=C.[Na+].[Na+]", "note": "[PROTOPORPHYRIN DISODIUM]", "values": [{"measurement": "Activity", "setting": "[12]", "value": 60.7, "unit": "%"}]}
